Laboratory results reported in US7608761B2, “Method for disease control in MON89788 soybean” (Monsanto Technology LLC, priority 2005, dated 2009).

Legend:
[1] = system: Frogeye Leafspot (Cercospora sojina); test: Greenhouse disease severity on MON89788, Frogeye Leafspot; type: in vivo; parameters: key to Frogeye disease severity (DS): 1 = no symptoms; 2 = ≤10% leaf infected … 9 = >85% leaf infected; settings: for Frogeye disease severity (DS): 1-9 scale
Experimental: (§1) Soybean plants comprising event MON89788 and grown under standard conditions in a greenhouse were treated with 1×, 2× or 3× concentrations of glyphosate and inoculated with the plant pathogens 1 DBI, 1 DAI and 4 DAI. Disease symptoms for each disease was rated on a 1-9 scale as an approximate measure of disease severity (DS)occurring on the leaves, 1 is no symptoms, 2 is up to 10% of the leaf infected, 3 is 11-20% of the leaf infected, 4 is 21-35%, 5 is 36-50%, 7 is 66-75%, 8 is 76-85%, 9 is greater than 85% of the leaf is infected and showing disease symptoms.

[2] = system: Cercospora leaf blight (Cercospora carotae); test: Greenhouse disease severity on MON89788, Cercospora leaf blight; type: in vivo; parameters: key to Cercospora Leaf Blight disease severity (DS): 1 = no symptoms; 2 = ≤10% leaf infected … 9 = >85% leaf infected; settings: 1×, 2× or 3×; 1 DBI, 1 DAI and 4 DAI
Experimental: as §1

Cercospora leaf blight = test: as above; type: in vivo, Cercospora carotae; parameters: key to Cercospora Leaf Blight disease severity (DS): 1 = no symptoms; 2 = ≤10% leaf infected … 9 = >85% leaf infected; settings: 1-9 scale
Experimental: as §1

[3] = system: Aerial blight (Rhizoctonia solani); test: Greenhouse disease severity on MON89788, Aerial blight; type: in vivo; settings: for Aerial Blight disease severity (DS): 1-9 scale
Experimental: as §1

Asian Soybean Rust (ASR) = test: Greenhouse assay on intact MON89788 plants, ASR; type: in vivo, Phakopsora sp.
Experimental: Greenhouse assays on intact MON89788 plants were treated with 1×, 2×, and 3× rates of Roundup® WeatherMax at 6 DBI (days before inoculation) and 9 DAI. Results for this experiment were collected 17 DAI.

powdery mildew disease = test: Powdery mildew disease control on MON89788; type: in vivo, Microsphaera diffusa; settings: for DS Mean (powdery mildew): treated 1 DBI, no spray control 4.65
Excerpt: The mean disease severity score for the no spray control was 4.65, the glyphosate treatments provided a high level of disease control at all treatment rates.

[4] = system: Asian Soybean Rust (ASR) (Loxley Al isolate); test: Growth chamber detached soybean leaf assay, ASR on MON89788; type: in vivo, Phakopsora sp.
Experimental: Growth chamber and greenhouse assays were conducted to determine if glyphosate treatments (Roundup® WeatherMax) decreased the disease severity of Asian Soybean Rust (ASR) on MON89788. Growth chamber assays were conducted following a detached leaf assay method. Plants of MON89788 were grown in the greenhouse and leaves from the 3rd trifoliate were detached and placed in 6-well trays with water. Five treatments were evaluated: (1) an untreated check inoculated with spores of ASR (Loxley Al isolate); (2) leaf tissue of MON89788 inoculated with ASR spores and treated with glyphosate post-sporulation (13 days after inoculation with spores (DAI)); (3) MON89788 treated with 1× rate (0.75 lb/acre) of Roundup® WeatherMax 5 DAI; (4) MON89788 treated with […] of Roundup® WeatherMax 5 DAI; and (5) MON89788 treated with 3× rate of Roundup® WeatherMax 5 DAI.
The leaves were rated for disease severity 12 DAI, 20 DAI, and 25 DAI.
The analysis of the disease progression is illustrated in FIG. 2 and measured as the Area Under Disease Progress Curve (AUDPC) for the same material summarized in FIG. 1. […] The disease progression was reduced for all glyphosate treatments at 5DAI and the 2× rate post-sporulation.

[5] = 1×, 2× or 3×, 1 DBI, 1 DAI and 4 DAI

SMILES: O=C(O)CNCP(=O)(O)O [glyphosate, N-phosphonomethylglycine]
- Frogeye disease severity (DS) ([1]; 1 day post inoculation, 1X): 3.4
- Frogeye disease severity (DS) ([1]; 1 day post inoculation, 2X): 3.3
- Frogeye disease severity (DS) ([1]; 1 day post inoculation, 3X): 7.2
- Frogeye disease severity (DS) ([1]; 1 day pre inoculation, 1X): 2.7
- Frogeye disease severity (DS) ([1]; 1 day pre inoculation, 2X): 3.7
- Frogeye disease severity (DS) ([1]; 1 day pre inoculation, 3X): 3.8
- Frogeye disease severity (DS) ([1]; 4 days post inoculation, 1X): 3.7
- Frogeye disease severity (DS) ([1]; 4 days post inoculation, 2X): 5.3
- Frogeye disease severity (DS) ([1]; 4 days post inoculation, 3X): 2.3
- disease severity control, Frogeye Leafspot [1, 5]: preventative and curative disease severity control
- disease severity control, Cercospora leaf blight [2]: preventative and curative disease severity control
- Cercospora Leaf Blight disease severity (DS) (Cercospora leaf blight; 1 day post inoculation, 1X): 2.8
- Cercospora Leaf Blight disease severity (DS) (Cercospora leaf blight; 1 day post inoculation, 2X): 6.4
- Cercospora Leaf Blight disease severity (DS) (Cercospora leaf blight; 1 day post inoculation, 3X): 6.5
- Cercospora Leaf Blight disease severity (DS) (Cercospora leaf blight; 1 day pre inoculation, 1X): 2.8
- Cercospora Leaf Blight disease severity (DS) (Cercospora leaf blight; 1 day pre inoculation, 2X): 6.1
- Cercospora Leaf Blight disease severity (DS) (Cercospora leaf blight; 1 day pre inoculation, 3X): 3.8
- Cercospora Leaf Blight disease severity (DS) (Cercospora leaf blight; 4 days post inoculation, 1X): 3.3
- Cercospora Leaf Blight disease severity (DS) (Cercospora leaf blight; 4 days post inoculation, 2X): 3.2
- Cercospora Leaf Blight disease severity (DS) (Cercospora leaf blight; 4 days post inoculation, 3X): 4.9
- Aerial Blight disease severity (DS) ([3]; 1 day post inoculation, 1X): 5.0
- Aerial Blight disease severity (DS) ([3]; 1 day post inoculation, 2X): 6.4
- Aerial Blight disease severity (DS) ([3]; 1 day post inoculation, 3X): 6.9
- Aerial Blight disease severity (DS) ([3]; 1 day pre inoculation, 1X): 7.1
- Aerial Blight disease severity (DS) ([3]; 1 day pre inoculation, 3X): 8.0
- Aerial Blight disease severity (DS) ([3]; 4 days post inoculation, 1X): 7.6
- Aerial Blight disease severity (DS) ([3]; 4 days post inoculation, 2X): 4.4
- Aerial Blight disease severity (DS) ([3]; 4 days post inoculation, 3X): 7.9
- disease severity control, Aerial blight [3, 5]: preventative and curative disease severity control
- levels of ASR infection and disease (Asian Soybean Rust (ASR); 1×, 2×, 3× at 6 DBI or 9 DAI, all except 1× at 6 DBI, collected 17 DAI): lower levels of ASR infection and disease
- rate of ASR disease development (Asian Soybean Rust (ASR); pre-inoculation treatments): appeared to slow the rate of disease development
- levels of ASBR (Asian Soybean Rust (ASR); split treatments (1× pre+1× post-inoculation)): reduced levels of ASBR similar to single 2× and 3× pre- or post-inoculation
- DS Mean (powdery mildew) (powdery mildew disease; 0.75 lb ae/a (1X)): 1
- DS Mean (powdery mildew) (powdery mildew disease; 1.5 lb ae/a (2X)): 1
- DS Mean (powdery mildew) (powdery mildew disease; 2.25 lb ae/a (3X)): 1
- control of powdery mildew disease (powdery mildew disease; treated 1 DBI with any of the three rates): high level of control
- Area Under Disease Progress Curve (AUDPC) ([4]; 2× rate): lower compared to other treatments
- disease progression (AUDPC) ([4]; 2× rate post-sporulation): reduced
- Area Under Disease Progress Curve (AUDPC) ([4]; 3× rate): lower compared to other treatments
- disease progression (AUDPC) ([4]; all glyphosate treatments at 5DAI): reduced
- ASR sporulation ([4]; post-disease development/sporulation treatments): appeared to arrest sporulation
